In the NIST ThermoML archive (doi:10.1021/je030102f):

Experiment: xn = mol fraction of the nth substance listed
Conditions: 101.33 kPa, Liquid, vibrating tube

CCC(=O)O [propanoic acid] + O
mass density [kg/m3]
Conditions | x1 = 0.1298 | x1 = 0.2029 | x1 = 0.3012 | x1 = 0.4007 | x1 = 0.5008 | x1 = 0.5989 | x1 = 0.6974 | x1 = 0.7965 | x1 = 0.8915 | x1 = 1
283.15 K | 1026.89 | 1033.97 | 1034.47 | 1032.63 | 1029.26 | 1025.17 | 1020.51 | 1015.43 | 1010.32 | 1004.11
288.14 K | – | – | – | 1027.99 | – | – | – | – | 1005.04 | –
288.15 K | 1023.97 | 1030.05 | 1029.92 | – | 1024.44 | 1020.22 | 1015.46 | 1010.26 | – | 998.688
293.14 K | – | 1026.08 | 1025.58 | – | – | – | 1010.39 | – | – | –
293.15 K | 1020.98 | – | – | 1023.31 | 1019.59 | 1015.26 | – | 1005.1 | 999.76 | 993.261
298.14 K | – | 1022.05 | 1021.14 | – | 1014.72 | – | 1005.31 | 999.927 | – | –
298.15 K | 1017.85 | – | – | 1018.61 | – | 1010.28 | – | – | 994.478 | 987.847
303.14 K | 1014.61 | – | 1016.76 | 1013.88 | 1009.8 | 1005.29 | – | 994.744 | – | 982.44
303.15 K | – | 1017.97 | – | – | – | – | 1000.22 | – | 989.192 | –
308.14 K | – | – | – | – | – | – | – | 989.551 | – | –
308.15 K | 1011.28 | 1013.84 | 1012.25 | 1009.12 | 1004.17 | 1000.27 | 995.12 | – | 983.905 | 977.037
313.14 K | 1007.85 | 1009.64 | 1007.69 | – | 999.956 | 995.242 | 990.001 | – | 978.613 | 971.635
313.15 K | – | – | – | 1004.33 | – | – | – | 984.345 | – | –
318.14 K | 1004.32 | 1005.39 | 1003.09 | 999.507 | 994.902 | 990.186 | 984.864 | 979.126 | 973.307 | 966.24
323.14 K | 1000.71 | 1001.09 | 998.434 | 994.651 | – | 985.106 | – | 973.895 | 967.999 | –
323.15 K | – | – | – | – | 990.008 | – | 979.705 | – | – | 960.843

CCC(=O)O [propanoic acid] + CC(C)=O
mass density [kg/m3]
Conditions | x2 = 0 | x2 = 0.1014 | x2 = 0.1991 | x2 = 0.3046 | x2 = 0.4011 | x2 = 0.5001 | x2 = 0.603 | x2 = 0.6887 | x2 = 0.7703 | x2 = 0.8987
283.15 K | 1004.11 | 987.375 | 970.353 | 951.246 | 933.088 | 913.785 | 892.899 | 874.585 | 856.85 | 826.598
288.15 K | 998.688 | 982.013 | 965.023 | 945.944 | 927.765 | 908.446 | 887.52 | 869.18 | 851.407 | 821.062
293.15 K | 993.261 | 976.644 | 959.68 | 940.613 | 922.423 | 903.081 | 882.117 | 863.74 | 845.923 | 815.482
298.14 K | – | – | 954.344 | – | 917.072 | 897.705 | – | 858.28 | 840.415 | 809.87
298.15 K | 987.847 | 971.282 | – | 935.277 | – | – | 876.699 | – | – | –
303.14 K | 982.44 | 965.92 | 948.999 | 929.933 | 911.708 | 892.312 | 871.26 | 852.794 | 834.877 | 804.221
308.15 K | 977.037 | 960.555 | 943.653 | 924.579 | 906.33 | 886.9 | 865.798 | 847.276 | 829.305 | 798.532
313.14 K | 971.635 | 955.192 | – | – | – | – | 860.309 | – | 823.695 | –
313.15 K | – | – | 938.294 | 919.21 | 900.935 | 881.462 | – | 841.731 | – | 792.797
318.14 K | 966.24 | 949.825 | 932.928 | 913.828 | 895.523 | 876.007 | 854.791 | 836.154 | 818.051 | 787.018
323.14 K | 960.843 | – | 927.551 | 908.43 | 890.087 | – | – | – | 812.366 | 781.194
323.15 K | – | 944.448 | – | – | – | – | 849.244 | 830.541 | – | –
